The values that follow come from patent EP2197879B1, “C7-SUBSTITUTED CAMPTOTHECIN ANALOGS” (priority 2007, dated 2009).

Where two headings read alike, the source gives them in different places.

The test system of experiment [1] is A2780/WT (wild-type) cells. Put plainly: Sulforhodamine B (SRB) cytotoxicity assay in A2780/WT cells. Format: cell-based. The method, then:
(§1) Each of the testing conditions used in this study in both A2780/WT (wild-type) and A2780/DX5 cells were repeated in five to fifteen experiments that were performed on separate days. Each experiment consisted of one microtiter plate with at least eight individual assays of a given drug treatment condition on the plate. The sulforhodamine B (SRB) assay was used to assess cytotoxicity and absorbance at 570 nm (A570) in order to calculate the percentage of cell control (or percent cell survival) for the various treatment conditions in the plate wells.
(§2) Roswell Park Memorial Institute (RPMI 1640) medium, fetal bovine serum (FBS), and L-glutamine were purchased from Gibco BRL. Drugs were dissolved in sterile dimethylsulfoxide (DMSO), from American Type Culture Collection (ATCC) for stock solutions (2.5 to 5.0 mM). Subsequent dilutions were made using cell culture medium (prior to adding the drug to cells). SRB was purchased from Sigma and dissolved in 1.0 percent acetic acid. Trichloroacetic acid was purchased from VWR International.
(§3) Cells were manipulated in a Class IIA/B3 Biological Safety Cabinet (Forma Scientific) and maintained at 37°C in a humidified atmosphere containing 5% CO2 in a water-jacketed cell culture incubator (Forma Scientific). Cells were counted using a Coulter-Z1 counter (Beckman-Coulter). Following drug treatment, plates were washed using a Biomek 2000 station (Beckman) and, following exposure to SRB dye, plates were washed using an automated plate washer (Model EL404, Bio-Tek Instruments). Percentage of control was correlated to A570 values and determined using a Model EL800 plate reader (Bio-Tek Instruments).
(§4) Population doubling times for the two cell lines used in this study encompassed a total of five cell doublings corresponding to approximately 5 days for A2780/WT and A2780/DX5 cells. A2780/WT and A2780/DX5 cells were cultured in RPMI 1640 medium supplemented with 10% fetal bovine serum and 1 mM of L-glutamine. Both cell lines were maintained as monolayered cultures in T-25 or T-75 flasks and then seeded to microtiter plate wells for experiments described herein. Prior to SRB assays, cell viability was monitored by evaluation of microtiter plate wells. Dead cells detach and float while living cells remain attached to the bottom of the cell well.
(§5) The sulforhodamine B (SRB) cytotoxicity assay (see, Skehan P, et al., New colorimetric cytotoxicity assay for anticancer-drug screening. J. Natl. Cancer Inst. 82:1107-1112 (1990)) was used to determine the cytotoxic effects of BNP1350, SN-38, topotecan, 9-NH2-CPT, and 9-NO2-CPT on cell growth in vitro. Briefly, after the medium was aspirated from individual plate wells, trichloroacetic acid (100 µL of 10.0% solution) was added to each well, and the plates were incubated at 4°C for at least 1 hour. The plates were washed five-times with water using an automated microplate washer (Model EL 404, Bio-Tek Instruments), SRB solution (100 µL of 0.4 grams SRB dissolved in 100 mL 1.0 percent acetic acid) was added, and plates remained at room temperature for 15 minutes. The plates were then washed five-times using acetic acid (1.0%), air dried, and bound dye was solubilized in Tris base (150 µL, 10 mM). Plates were agitated (gently) for 5 minutes and the absorbance values of the SRB dye-protein adduct at a 570 nm wavelength (A570) were determined using an automated microtiter plate reader equipped with an A570 filter (Model EL800, BioTek Instruments). Table VII. Summary of Cytotoxicity Experiments in A2780/WT and DX5 Cells

The test system of the next experiment is A2780/DX5 cells. Put plainly: Sulforhodamine B (SRB) cytotoxicity assay in A2780/DX5 cells. The class given is cell-based. The conditions noted are these: for IC50 Ratio: A2780/DX5 versus A2780/WT. The method, then: as §1, §2, §3, §4, §5
[2] abbreviates: Homo sapiens, A2780, read-out: A2780/ WT (IC50).
[3] abbreviates: Homo sapiens, A2780, read-out: A2780/ DX5 (IC50).
The mark [4] stands for this setting: SRB assay, A2780/WT cells, read-out: A2780/ WT (IC50).
Where [5] appears, read: SRB assay, A2780/DX5 cells, read-out: A2780/ DX5 (IC50).

`CC[C@@]1(O)C(=O)OCc2c1cc1n(c2=O)Cc2c-1nc1ccccc1c2CC[Si](C)(C)CI` [Compound 4, 11-(4S)-[2-(iodomethyldimethylsilanyl)-ethyl]-4-ethyl-4-hydroxy-1,12-dihydro-4H-2-oxa-6,12a-diaza-dibenzo[b,h]fluorene-3,13-dione]: the IC50 in experiment [1] (setting [2]) amounted to 0.0157 µM; with A2780/DX5 cells (setting [3]), 0.027 µM. Further, the “IC50 Ratio” value in the experiment on A2780/DX5 cells is listed as 1.72.
Taken in the same sequence, the figures for `CC[C@@]1(O)C(=O)OCc2c1cc1n(c2=O)Cc2c-1nc1ccccc1c2CC[Si](C)(C)CO` [Compound 7, (4S)-4-ethyl-4-hydroxy-11-[2-(hydroxymethyldimethylsilanyl)-ethyl]-1,12-dihydro-4H-2-oxa-6,12a-diaza-dibenzo[b,h]fluorene-3,13-dione] were 0.0096 µM, 0.0403 µM and 4.2.
Taken in the same sequence, the figures for `CC[C@@]1(O)C(=O)OCc2c1cc1n(c2=O)Cc2c-1nc1ccccc1c2CC[Si](C)(C)CSC[C@H](NC(=O)OC(C)(C)C)C(=O)OC` [Compound 8, (2R, 4S)-2-tert-butoxycarbonylamino-3-({[2-(4-ethyl-4-hydroxy-3,13-dioxo-3,4,12,13-tetrahydro-1H-2-oxa-6,12a-diaza-dibenzo[b,h]fluoren-11-yl)-ethyl]-dimethyl-silanyl}-methylsulfanyl)-propionic acid methyl ester] were 0.0398 µM, 0.11 µM and 2.77.
On to `CCC1(O)C(=O)OCc2c1cc1n(c2=O)Cc2c-1nc1ccccc1c2CC[Si](C)(C)CSC(C)=O` (stereo not drawn) [Compound 9, thioacetic acid S-({[2-(4-ethyl-4-hydroxy-3.13-dioxo-3,4,12,13-tetrahydro-1H-2-oxa-6,12a-diaza-dibenzo[b,h]fluoren-11-yl)-ethyl]-dimethylsilanyl} -methyl) ester], for which the figures for the IC50 (in experiment [1] (setting [4]); in the experiment with A2780/DX5 cells (setting [5])) were 0.0647 µM and 0.125 µM, respectively. Besides, in the experiment on A2780/DX5 cells, the “IC50 Ratio” value is given as 1.94.
Taken in the same sequence, the figures for `CC[C@@]1(O)C(=O)OCc2c1cc1n(c2=O)Cc2c-1nc1ccccc1c2CC[Si](C)(C)CCCS(=O)(=O)c1ccccc1` [Compound 13, (4S)-11-{2-[(3-benzenesulfonylaronyl)-dimethylsilanyl]-ethyl}-4-ethyl-4-hydroxy-1,12-dihydro-4H-2-oxa-6,12a-diaza-dibenzo[b,h]fluorene-3,13-dione] were 0.0085 µM, 0.0535 µM and 6.3.
For `CC[C@@]1(O)C(=O)OCc2c1cc1n(c2=O)Cc2c-1nc1ccccc1c2CC[Si](C)(C)CCCn1ccnc1` [Compound 14, (4S)-4-ethyl-4-hydroxy-11-{2-[(3-imidazol-1-yl-propyl)-dimethyl-silanyl]-ethyl}-1,12-dihydro-4H-2-oxa-6,2a-diaza-dibenzo[b,h]fluorene-3,13-dione], the figures for the IC50 (in experiment [1] (setting [4]); in the experiment with A2780/DX5 cells (setting [5])) were 0.0112 µM and 0.166 µM, respectively. Further, the “IC50 Ratio” value in the experiment on A2780/DX5 cells worked out at 14.8.
Regarding `CC[C@@]1(O)C(=O)OCc2c1cc1n(c2=O)Cc2c-1nc1ccccc1c2CC[Si](C)(C)CCCn1cncn1` [Compound 15, (4S)-11-{2-[dimethyl-(3-[1,2,4]triazol-1-yl-pronyl)-silanyl]-ethyl}-4-ethyl-4-hydroxy-1,12-dihydro-4H-2-oxa-6,12a-diaza-dibenzo[b,h]fluorene-3,13-dione], the IC50 in experiment [1] (setting [4]) came out at 0.009 µM; in the experiment with A2780/DX5 cells (setting [5]), 0.0624 µM. In the experiment on A2780/DX5 cells, the “IC50 Ratio” value was determined as 6.9.
For the compound `CC[C@@]1(O)C(=O)OCc2c1cc1n(c2=O)Cc2c-1nc1ccccc1c2CC[Si](C)(C)CCCN(C)C` [Compound 16, (4S)-11-{2-[(3-dimethylaminopropyl)-dimethysilanyl]-ethyl}-4-ethyl-4-hydroxyl-1,12-dihydro-4H-2-oxa-6,12a-diaza-dibenzo[b,h]fluorene-3,13-dione], the IC50 in experiment [1] (setting [4]) was determined as 0.0236 µM; in the experiment on A2780/DX5 cells (setting [5]), 0.512 µM. In addition, in the experiment with A2780/DX5 cells, the “IC50 Ratio” value stood at 21.7.
Turning to `CC[C@@]1(O)C(=O)OCc2c1cc1n(c2=O)Cc2c-1nc1ccccc1c2CC[Si](C)(C)CCCn1ccccc1=O` [Compound 17, (4S)-11-(2-{dimethyl-[3-(2-oxo-2H-pyridin-1-yl)-propyl]-silanyl}-ethyl)-4-ethyl-4-hydroxy-1,12-dihydro-4H-2-oxa-6,12a-diaza-dibenzo[b,h]fluorene-3,13-dione], the IC50 in experiment [1] (setting [2]) worked out at 0.016 µM; in the experiment on A2780/DX5 cells (setting [3]), 0.186 µM. In the experiment with A2780/DX5 cells, the “IC50 Ratio” value is given as 11.6.
As for `CC[C@@]1(O)C(=O)OCc2c1cc1n(c2=O)Cc2c-1nc1ccccc1c2CC[Si](C)(C)CCCP(=O)(OC)OC` [Compound 18, (4S)-(3-{[2-(4-ethyl-4-hydroxy-3,13-dioxo-3,4,12,13-tetrahydro-1H-2-oxa-6,12a-diaza-dibenzo[b,h]fluoren-11-yl)-ethyl]-dimethylsilanyl}-propyl)-phosphonic acid dimethyl ester], the IC50 in experiment [1] (setting [2]) is 0.0586 µM; in the experiment with A2780/DX5 cells (setting [3]), 0.687 µM. The “IC50 Ratio” value with A2780/DX5 cells was 11.7.
Take `CC[C@@]1(O)C(=O)OCc2c1cc1n(c2=O)Cc2c-1nc1ccccc1c2CC[Si](C)(C)CCCNC(=O)C(F)(F)F` [Compound 23, (4S)-N-(3-{[2-(4-ethyl-4-hydroxy-3,13-dioxo-3,4,12,13-tetrahydro-1H-2-oxa-6,12a-diaza-dibenzo[b,h]fluoren-11-yl)-ethyl]-dimethyl-silanyl}-propyl)-2,2,2-trifiuoro-acetamide]: the IC50 in experiment [1] (setting [4]) came to 0.0169 µM; in the experiment with A2780/DX5 cells (setting [5]), 0.0558 µM. In the experiment with A2780/DX5 cells, the “IC50 Ratio” value came to 3.3.
Take `CC[C@@]1(O)C(=O)OCc2c1cc1n(c2=O)Cc2c-1nc1ccccc1c2CC[Si](C)(C)CCCNC(=O)Nc1ccccc1` [Compound 25, (4S)-1-(3-{[2-(4-ethyl-4-hydroxy-3,13-dioxo-3,14,12,13-tetrahydro-1H-2-oxa-6,12a-diaza-dibenzo[b,h]fluoren-11-yl)-ethyl]-dimethylsilanyl}-propyl)-3-phenylurea]: the IC50 in experiment [1] (setting [4]) came to 0.0234 µM; in the experiment on A2780/DX5 cells (setting [5]), 0.152 µM. Moreover, in the experiment with A2780/DX5 cells, the “IC50 Ratio” value was 6.5.
For `CCN(CC)C(=O)NCCC[Si](C)(C)CCc1c2c(nc3ccccc13)-c1cc3c(c(=O)n1C2)COC(=O)[C@]3(O)CC` [Compound 27, (4S)-1,1-diethyl-3-(3-{[2-(4-ethyl-4-hydroxy-3,13-dioxo-3,4,12,13-tetrahydro-1H-2-oxa-6,12a-diaza-dibenzo[b,h]fluoren-11-yl)-ethyl]-dimethyl-silanyl}-propyl)-urea], the figures for the IC50 (in experiment [1] (setting [2]); in the experiment on A2780/DX5 cells (setting [3])) were 0.0652 µM and 0.47 µM, respectively. Besides, the “IC50 Ratio” value in the experiment on A2780/DX5 cells amounted to 7.21.
On to `CC[C@@]1(O)C(=O)OCc2c1cc1n(c2=O)Cc2c-1nc1ccccc1c2CC[Si](C)(C)CCCNC(=O)N(C)C` [Compound 29, (4S)-3-(3-{[2-(4-ethyl-4-hydroxy-3,13-dioxo-3,4,12,13-tetrahydro-1H-2-oxa-6,12a-diaza-dibenzo[b,h]fluoren-11-yl)-ethyl]-dimethylsilanyl}-propyl)-1,1-dimethylurea], for which the figures for the IC50 (in experiment [1] (setting [2]); in the experiment with A2780/DX5 cells (setting [3])) were 0.0275 µM and 0.312 µM, respectively. Further, the “IC50 Ratio” value in the experiment with A2780/DX5 cells is 11.4.
Taken in the same sequence, the figures for `CC[C@@]1(O)C(=O)OCc2c1cc1n(c2=O)Cc2c-1nc1ccccc1c2CC[Si](C)(C)Cn1ccccc1=O` [Compound 31, (4S)-11-{2-[dimethyl-(2-oxo-2H-pyridin-1-ylmethyl)-silanyl]-ethyl}-4-ethyl-4-hydroxy-1,12-dihydro-4H-2-oxa-6,12a-diaza-dibenzo[b,h]fluorene-3,13-dione] were 0.0121 µM, 0.0985 µM and 8.1.
